The values that follow come from US20240066027A1 (DOMAIN THERAPEUTICS, priority 2020, published 2024).

The target in this assay is T1, human PAR-2 (hPAR-2) receptor expressed in HEK-293 T cells in an endogenous manner (Homo sapiens, UniProt P55085).
T1 construct: human PAR-2 (hPAR-2) receptor expressed in HEK-293 T cells in an endogenous manner; endogenous in cells; host or cells: HEK-293 T cells
T1 sequence (P55085 26-397): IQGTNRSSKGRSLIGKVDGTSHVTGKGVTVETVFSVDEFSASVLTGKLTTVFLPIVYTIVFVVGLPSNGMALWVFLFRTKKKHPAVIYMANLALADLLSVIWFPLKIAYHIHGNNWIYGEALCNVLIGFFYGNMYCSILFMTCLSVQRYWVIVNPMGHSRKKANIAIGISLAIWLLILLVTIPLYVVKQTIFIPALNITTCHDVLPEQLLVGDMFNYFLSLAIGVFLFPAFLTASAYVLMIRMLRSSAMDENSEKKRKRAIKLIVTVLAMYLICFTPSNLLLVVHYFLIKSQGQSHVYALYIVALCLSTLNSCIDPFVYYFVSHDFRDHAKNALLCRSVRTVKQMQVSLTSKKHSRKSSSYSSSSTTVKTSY
Kind of assay: In vitro human PAR-2 functional antagonist activity using calcium assays (Fluo4AM, FLIPR Tetra). In kind it is cell-based. The following applies: HEK-293 T cells stimulated by an EC80 of the 2-Furoyl-LIGRLO-NH2 peptide after 10 min incubation with compound; 20 concentrations, duplicate, two independent experiments. A digest of the protocol: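 Antagonist activity was taken as the decrease in the calcium response to an EC80 of 2-Furoyl-LIGRLO-NH2, measured over 5 min. The agonist was added after a 10 min compound-alone step on the same plate. The HEK-293 T cells express PAR-2 endogenously and were loaded with 1 μM Fluo4AM. Signals were referenced to buffer and EC80-alone controls.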
For the molecule `Cc1cc2c(-c3ccc(Cl)c(F)c3)cn(CC(C)C)c2nc1C(=O)N1CCN(c2cc(C)c(C(=O)O)c(C)n2)CC1` [Example 186, 6-(4-(3-(4-chloro-3-fluorophenyl)-1-isobutyl-5-methyl-1H-pyrrolo[2,3-b]pyridine-6-carbonyl)piperazin-1-yl)-2,4-dimethylnicotinic acid], the IC50 is above 10000 nM.

As to `COC(=O)CC1CCN(C(=O)c2ccc3c(-c4ccc(Cl)c(F)c4)cn(CC(C)C)c3c2)CC1` [Example 203, methyl 2-(1-(3-(4-chloro-3-fluorophenyl)-1-isobutyl-1H-indole-6-carbonyl)piperidin-4-yl)acetate], the half-maximal inhibitory concentration (IC50) fell in the range of 20 to 10000 nM. The value for `COC(=O)CN1CCN(C(=O)c2ccc3c(-c4ccc(Cl)c(F)c4)cn(C(C)(C)C)c3n2)C(C)(C)C1=O` [Example 3, methyl 2-(4-(1-(tert-butyl)-3-(4-chloro-3-fluorophenyl)-1H-pyrrolo[2,3-b]pyridine-6-carbonyl)-3,3-dimethyl-2-oxopiperazin-1-yl)acetate] was below 20 nM; that for `COCC1CN(C(=O)c2ccc3c(-c4ccc(Cl)c(F)c4)cn(C(C)(C)C)c3n2)CCN1c1cc(C)c(C(=O)O)c(C)n1` (centres unmarked) [Example 132, 6-(4-(1-(tert-butyl)-3-(4-chloro-3-fluorophenyl)-1H-pyrrolo[2,3-b]pyridine-6-carbonyl)-2-(methoxymethyl)piperazin-1-yl)-2,4-dimethyinicotinic acid] was 20 to 10000 nM; that for `CC(C)Cn1cc(-c2ccccc2F)c2ccc(C(=O)N3CCNC(=O)C3(C)C)nc21` [Example 113, 4-(3-(2-fluorophenyl)-1-isobutyl-1H-pyrrolo[2,3-b]pyridine-6-carbonyl)-3,3-dimethylpiperazin-2-one] was 20 to 10000 nM. The value for `CC(C)Cn1cc(-c2ccccc2OC(F)(F)F)c2ccc(C(=O)N3CCNC(=O)C3(C)C)nc21` [Example 112, 4-(1-isobutyl-3-(2-(trifluoromethoxy)phenyl)-1H-pyrrolo[2,3-b]pyridine-6-carbonyl)-3,3-dimethylpiperazin-2-one] was 20 to 10000 nM. The figure for `Cc1cc(N2CCN(C(=O)c3ccc4c(-c5ccc(Cl)c(F)c5)cn(CC5(C)COC5)c4n3)C(C)(C)C2)nc(C)c1C(=O)O` [Example 181, 6-(4-(3-(4-chloro-3-fluorophenyl)-1-((3-methyloxetan-3-yl)methyl)-1H-pyrrolo[2,3-b]pyridine-6-carbonyl)-3,3-dimethylpiperazin-1-yl)-2,4-dimethylnicotinic acid] is below 20 nM; for `CC(C)(C)n1cc(-c2ccc(Cl)c(F)c2)c2ccc(C(=O)N3[C@@H]4CC[C@H]3CC(O)C4)nc21` (stereo partly drawn) [Example 11, (1-(tert-butyl)-3-(4-chloro-3-fluorophenyl)-1H-pyrrolo[2,3-b]pyridin-6-yl)((1R,3r,5S)-3-hydroxy-8-azabicyclo[3.2.1]octan-8-yl)methanone] it is above 10000 nM. Take `Cc1cc(NC(=O)C2CCN(C(=O)c3ccc4c(-c5ccc(Cl)c(F)c5)cn(C(C)(C)C)c4n3)CC2)nc(C)c1C(=O)O` [Example 123, 6-(1-(1-(tert-butyl)-3-(4-chloro-3-fluorophenyl)-1H-pyrrolo[2,3-b]pyridine-6-carbonyl)piperidine-4-carboxamido)-2,4-dimethylnicotinic acid]: the IC50 was in the range of 20 to 10000 nM. As to `CC(C)Cn1cc(-c2ccc(OC(F)(F)F)cc2)c2ccc(C(=O)N3CCNC(=O)C3(C)C)nc21` [Example 116, 4-(1-isobutyl-3-(4-(trifluoromethoxy)phenyl)-1H-pyrrolo[2,3-b]pyridine-6-carbonyl)-3,3-dimethylpiperazin-2-one], the IC50 fell in the range of 20 to 10000 nM. Turning to `CC1(C)C(=O)NCCN1C(=O)c1ccc2c(-c3ccc(Cl)c(F)c3)cn(CC(F)(F)F)c2n1` [Example 31, 4-(3-(4-chloro-3-fluorophenyl)-1-(2,2,2-trifluoroethyl)-1H-pyrrolo[2,3-b]pyridine-6-carbonyl)-3,3-dimethylpiperazin-2-one], the 50% inhibitory concentration (IC50) lay in the range of 20 to 10000 nM. As to `CC(C)Cn1cc(-c2ccc(Cl)cc2)c2ccc(C(=O)N3CCNC(=O)C3(C)C)nc21` [Example 54, 4-[3-(4-chlorophenyl)-1-isobutyl-pyrrolo[2,3-b]pyridine-6-carbonyl]-3,3-dimethyl-piperazin-2-one], the IC50 lay within 20 to 10000 nM. For `CC(C)Cn1cc(-c2ccc3ccccc3c2)c2ccc(C(=O)N3CCNC(=O)C3(C)C)nc21` [Example 226, 4-(1-isobutyl-3-(naphthalen-2-yl)-1H-pyrrolo[2,3-b]pyridine-6-carbonyl)-3,3-dimethylpiperazin-2-one], the half-maximal inhibitory concentration (IC50) fell in the range of 20 to 10000 nM. The value for `CN1CCN(C(=O)c2ccc3c(-c4ccc(Cl)c(F)c4)cn(C(C)(C)C)c3n2)CC1=O` [Example 20, 4-(1-(tertbutyl)-3-(4-chloro-3-fluorophenyl)-1H-pyrrolo[2,3-b]pyridine-6-carbonyl)-1-methylpiperazin-2-one] was 20 to 10000 nM. `CC1(C)C(=O)NCCN1C(=O)c1ccc2c(-c3ccc(Cl)c(F)c3)cn(Cc3ccncc3)c2n1` [Example 120, 4-(3-(4-chloro-3-fluorophenyl)-1-(pyridin-4-ylmethyl)-1H-pyrrolo[2,3-b]pyridine-6-carbonyl)-3,3-dimethylpiperazin-2-one]: the IC50 was in the range of 20 to 10000 nM. The figure for `Cc1cc(N2CCN(C(=O)c3ccc4c(-c5ccc(Cl)c(F)c5)cn(CC5CCC5)c4n3)C(C)(C)C2)nc(C)c1C(=O)O` [Example 171, 6-(4-(3-(4-chloro-3-fluorophenyl)-1-(cyclobutylmethyl)-1H-pyrrolo[2,3-b]pyridine-6-carbonyl)-3,3-dimethylpiperazin-1-yl)-2,4-dimethylnicotinic acid] is below 20 nM; for `CC(C)(C)c1nc(-c2ccc(Cl)cc2)n2ccc(C(=O)N3CCN(c4ccc(C(=O)O)cn4)CC3(C)C)nc12` [Example 217, 6-(4-(8-(tert-butyl)-6-(4-chlorophenyl)imidazo[1,5-a]pyrimidine-2-carbonyl)-3,3-dimethylpiperazin-1-yl)nicotinic acid] it is 20 to 10000 nM. `COC(=O)C1CCN(C(=O)c2ccc3c(-c4ccc(Cl)c(F)c4)cn(C(C)(C)C)c3n2)CC1(C)C` (centres unmarked) [Example 21, methyl 1-(1-(tert-butyl)-3-(4-chloro-3-fluorophenyl)-1H-pyrrolo[2,3-b]pyridine-6-carbonyl)-3,3-dimethylpiperidine-4-carboxylate]: the IC50 is 20 to 10000 nM. Regarding `CC(C)n1cc(-c2ccc(Cl)c(F)c2)c2ccc(C(=O)N3CCNC(=O)C3(C)C)nc21` [Example 96, 4-(3-(4-chloro-3-fluorophenyl)-1-isopropyl-1H-pyrrolo[2,3-b]pyridine-6-carbonyl)-3,3-dimethylpiperazin-2-one], the IC50 was below 20 nM. In the case of `Cc1cc(N2CCN(C(=O)c3ccc4c(-c5ccc(Cl)c(F)c5)cn(C(C)(C)CO)c4n3)C(C)(C)C2)nc(C)c1C(=O)O` [Example 102, 6-(4-(3-(4-chloro-3-fluorophenyl)-1-(1-hydroxy-2-methylpropan-2-yl)-1H-pyrrolo[2,3-b]pyridine-6-carbonyl)-3,3-dimethylpiperazin-1-yl)-2,4-dimethylnicotinic acid], the IC50 is 20 to 10000 nM. The value for `Cc1cc(N2CCN(C(=O)c3ccc4c(-c5ccc(Cl)c(F)c5)cn(CC5(C)CCOCC5)c4n3)C(C)(C)C2)nc(C)c1C(=O)O` [Example 183, 6-(4-(3-(4-chloro-3-fluorophenyl)-1-((4-methyltetrahydro-2H-pyran-4-yl)methyl)-1H-pyrrolo[2,3-b]pyridine-6-carbonyl)-3,3-dimethylpiperazin-1-yl)-2,4-dimethyinicotinic acid] was below 20 nM; that for `CC(C)Cn1cc(-c2ccc(C#N)cc2)c2ccc(C(=O)N3CCNC(=O)C3(C)C)nc21` [Example 106, 4-(6-(2,2-dimethyl-3-oxopiperazine-1-carbonyl)-1-isobutyl-1H-pyrrolo[2,3-b]pyridin-3-yl)benzonitrile] was 20 to 10000 nM. The figure for `Cc1cc(N2CCN(C(=O)c3ccc4c(-c5ccc(Cl)c(F)c5)nn(C(C)(C)C)c4n3)C(C)(C)C2)nc(C)c1C(=O)O` [Example 87, 6-(4-(1-(tert-butyl)-3-(4-chloro-3-fluorophenyl)-1H-pyrazolo[3,4-b]pyridine-6-carbonyl)-3,3-dimethylpiperazin-1-yl)-2,4-dimethylnicotinic acid] is 20 to 10000 nM. The value for `Cc1cc(N2CCN(C(=O)c3ccc4c(n3)c(CC(C)C)nn4-c3ccc(Cl)c(F)c3)C(C)(C)C2)nc(C)c1C(=O)O` [Example 65, 6-(4-(1-(4-chloro-3-fluorophenyl)-3-isobutyl-1H-pyrazolo[4,3-b]pyridine-5-carbonyl)-3,3-dimethylpiperazin-1-yl)-2,4-dimethylnicotinic acid] was 20 to 10000 nM. As to `CC(C)(C)n1cc(-c2ccc(Cl)c(F)c2)c2ccc(C(=O)N3CCC(CC(=O)O)CC3)nc21` [Example 125, 2-(1-(1-(tert-butyl)-3-(4-chloro-3-fluorophenyl)-1H-pyrrolo[2,3-b]pyridine-6-carbonyl)piperidin-4-yl)acetic acid], the IC50 was in the range of 20 to 10000 nM. The figure for `Cc1cc(N2CCN(C(=O)c3cc(C)c4c(-c5ccc(Cl)c(F)c5)cn(CC(C)C)c4n3)C(C)(C)C2)nc(C)c1C(=O)O` [Example 188, 6-(4-(3-(4-chloro-3-fluorophenyl)-1-isobutyl-4-methyl-1H-pyrrolo[2,3-b]pyridine-6-carbonyl)-3,3-dimethylpiperazin-1-yl)-2,4-dimethyinicotinic acid] is 20 to 10000 nM.
